Patent US20110178104A1, “Anti-Heparin Compounds” (POLYMEDIX INC., priority 2010, published 2011)
Like-named read-outs stand apart in the source and are kept apart here.

Columns and labels:
[1] = tested on: Unfractionated heparin; assay: aPTT clotting assay, UFH 0.4 U/mL in plasma (Example 10); type: biochemical
Protocol: aPTT clotting Assay: Unfractionated heparin was mixed with plasma at a final concentration of 0.4 U/mL (or concentration which increases aPTT time to between 120 and 300 seconds). […] The ACL Elite Hemostasis analyzer (Beckman Coulter™) was used to add aPTT reagent (HemosIL SynthASil) to supplemented plasma. Clotting was initiated by addition of CaCl2 and time to clot was recorded.

[2] = tested on: UFH; assay: FXa amidolytic assay (Example 10), UFH; settings: read-out: Heparin FXa uM EC50
Protocol: (§1) Two μl of test agent are added (range between 0.01 and 23 ug/ml) and incubated for 5 minutes at 23° C. Bovine Factor Xa was added to a final concentration of 0.636 nkat/mL and incubated for a further 10 minutes at 23° C.

[3] = tested on: enoxaparin; assay: FXa amidolytic assay (Example 10), enoxaparin; settings: read-out: Enox FXa EC50
Protocol: as §1

[4] = tested on: tinzaparin; assay: FXa amidolytic assay (Example 10), tinzaparin; settings: read-out: Tinzap FXa EC50
Protocol: as §1

[5] = tested on: fondaparinux; assay: FXa amidolytic assay (Example 10), fondaparinux; settings: read-out: Fondap FXa EC50
Protocol: as §1

[6] = unfractionated heparin 0.4 U/mL in plasma, aPTT clotting
[7] = UFH 0.03 units/mL, human antithrombin, bovine Factor Xa
[8] = enoxaparin 0.1 ug/ml, human antithrombin, bovine Factor Xa
[9] = tinzaparin 0.1 ug/ml, human antithrombin, bovine Factor Xa
[10] = fondaparinux 0.02 μg/mL, human antithrombin, bovine Factor Xa

## COc1ccc(NC(=O)[C@@H](CCCNC(=N)N)NC(=O)c2cc(NC(=O)[C@@H](CCCNC(N)=O)NC(=O)c3cc(NC(=O)[C@@H](CCCNC(N)=O)NC(=O)c4cc(NC(=O)[C@H](N)CCCNC(=N)N)ccc4OC)ccc3OC)ccc2OC)cc1C(N)=O [Compound 376]
[1]; [6]
  EC50: 1.89 µM
[2]; [7]
  EC50: 0.416 µM
[3]; [8]
  EC50: 0.191 µM
[4]; [9]
  EC50: 0.114 µM
[5]; [10]
  EC50: 1.67 µM

## COc1ccc(NC(=O)[C@@H](CCCNC(N)=O)NC(=O)c2cc(NC(=O)[C@@H](CCCNC(=N)N)NC(=O)c3cc(NC(=O)[C@@H](CCCNC(=N)N)NC(=O)c4cc(NC(=O)[C@H](N)CCCNC(N)=O)ccc4OC)ccc3OC)ccc2OC)cc1C(N)=O [Compound 377]
[1]
  EC50: 2.09 µM
[2]
  EC50: 0.66 µM
[3]
  EC50: 0.149 µM
[4]
  EC50: 0.092 µM
[5]
  EC50: 1.44 µM

## COc1ccc(NC(=O)[C@@H](CCCNC(=N)N)NC(=O)c2cc(NC(=O)[C@@H](CCCNC(N)=O)NC(=O)c3cc(NC(=O)[C@@H](CCCNC(=N)N)NC(=O)c4cc(NC(=O)[C@H](N)CCCNC(N)=O)ccc4OC)ccc3OC)ccc2OC)cc1C(N)=O [Compound 378]
[1]
  EC50: 2.01 µM
[2]
  EC50: 0.49 µM
[3]
  EC50: 0.11 µM
[4]
  EC50: 0.073 µM
[5]
  EC50: 2.33 µM

## COc1cc(OC)c(C(=O)N[C@H]2CC[C@@H](NC(=O)c3cc(C(=O)N[C@H]4CC[C@@H](N=C(N(C)C)N(C)C)CC4)c(OC)cc3OC)CC2)cc1C(=O)NCCN [Compound 382]
[1]; [6]
  EC50: > 10 µM
[2]; [7]
  EC50: > 20 µM
[3]; [8]
  EC50: > 5 µM
[4]; [9]
  EC50: > 5 µM
[5]; [10]
  EC50: > 10 µM

## COc1cc(OC)c(C(=O)N[C@H]2CC[C@@H](NC(=O)c3cc(C(=O)N[C@H]4CC[C@@H](N)CC4)c(OC)cc3OC)CC2)cc1C(=O)NCCN [Compound 383]
[1]; [6]
  EC50: > 10 µM
[2]; [7]
  EC50: > 20 µM
[3]; [8]
  EC50: > 5 µM
[4]; [9]
  EC50: > 5 µM
[5]; [10]
  EC50: > 10 µM

## COc1cc(OC)c(C(=O)N2CCC(NC(=O)c3cc(C(=O)NC4CCN(C(=O)c5cc(C(=O)NCCN)c(OC)cc5OC)CC4)c(OC)cc3OC)CC2)cc1C(=O)NCCN [Compound 384]
[1]; [6]
  EC50: > 10 µM
[2]; [7]
  EC50: > 20 µM
[3]; [8]
  EC50: > 5 µM
[4]; [9]
  EC50: > 5 µM
[5]; [10]
  EC50: > 10 µM

## COc1cc(OC)c(C(=O)NC2CCN(C(=O)c3cc(C(=O)NCCN)c(OC)cc3OC)CC2)cc1C(=O)O [Compound 385]
[1]; [6]
  EC50: > 10 µM
[2]; [7]
  EC50: > 20 µM
[3]; [8]
  EC50: > 5 µM
[4]; [9]
  EC50: > 5 µM
[5]; [10]
  EC50: > 10 µM

## COc1cc(OC)c(C(=O)NCCNC(=O)c2cc(C(=O)NCCN)c(OC)cc2OC)cc1C(=O)O [Compound 387]
[1]; [6]
  EC50: > 10 µM
[2]; [7]
  EC50: > 20 µM
[3]; [8]
  EC50: > 5 µM
[4]; [9]
  EC50: > 5 µM
[5]; [10]
  EC50: > 10 µM

## COc1cc(OC)c(C(=O)N[C@H]2CC[C@@H](NC(=O)c3cc(C(=O)N[C@H]4CC[C@@H](N=C(N(C)C)N(C)C)CC4)c(OC)cc3OC)CC2)cc1C(N)=O [Compound 388]
[1]; [6]
  EC50: > 10 µM
[2]; [7]
  EC50: > 20 µM
[3]; [8]
  EC50: > 5 µM
[4]; [9]
  EC50: > 5 µM
[5]; [10]
  EC50: > 10 µM

## COc1cc(OC)c(C(=O)N[C@H]2CC[C@H](NC(=O)c3cc(C(=O)N[C@H]4CC[C@H](N=C(N(C)C)N(C)C)CC4)c(OC)cc3OC)CC2)cc1C(N)=O [Compound 389]
[1]; [6]
  EC50: > 10 µM
[2]; [7]
  EC50: > 10 µM
[3]; [8]
  EC50: 5.61 µM
[4]; [9]
  EC50: 6.73 µM
[5]; [10]
  EC50: > 10 µM
